Like-named read-outs stand apart in the source and are kept apart here.
Tests used:
[1] = tested on: HCT-116 colon cancer cell line; assay: MTT cell viability assay, HCT-116; format: cell-based; details: Homo sapiens, 24 h
Experimental: (§1) Normal or cancer cells (2×10^3 to 1×10^4 cells/well) were seeded in 96-well plate for overnight and treated with different compounds for 24 h to 72 h. Cells growth were determined by MTT-based colorimetric assays according to. Viability of the test cells treated with vehicle (0.5% DMSO) only was defined as 100% viable. Survival of cells after treatment with DETDs was calculated using the following formula: viable cell number (%)=OD570 (treated cell culture)/OD570 (vehicle control)×100.
(§2) Based on toxicity results of DET and DETDs on different breast cancer and melanoma cell lines, we selected DETD-6, -32, -35 and -39, under the consideration of structure activity relationship for evaluating their suppression effect against other cancer types of cell line with indicated tumor origin in Table 5. […] The cells were treated with compounds for 24 h and then subjected to MTT assays.

[2] = tested on: A375 (BRAF mutation); assay: MTT cell viability assay, A375 melanoma; format: cell-based, human; details: MTT
Outline: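 A375 cells were seeded at 2×10^3 to 1×10^4 per well overnight and then exposed to compounds for 24 h to 72 h. Viability was measured by MTT absorbance at OD570 relative to 0.5% DMSO vehicle (100%), and IC50 was derived from it. Combination with PLX4032 was scored by combination index.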

[3] = tested on: RAW264.7 (normal macrophage); assay: MTT cell viability assay, RAW264.7 macrophages; format: cell-based, mouse; details: for IC50: Mus musculus, RAW264.7, 24 h
Outline: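 RAW264.7 macrophages (2×10^5 cells/well) pretreated with compounds 1 h, then incubated 24 h with or without 100 ng/μL LPS. Viability by MTT colorimetric assay run in parallel with Griess nitrite measurement.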

[4] = tested on: TS/A (ER+, Her2−) murine mammary cancer cells; assay: MTT cell viability assay, TS/A cells; format: cell-based; details: Mus musculus
Outline: (§3)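 Cells (2×10^3 to 1×10^4 cells/well) were seeded overnight, then exposed to compounds for 24 h to 72 h. Growth was measured by MTT colorimetric assay, with viability calculated as OD570 of treated over vehicle (0.5% DMSO) control ×100.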

[5] = tested on: A375 human melanoma tumor; assay: A375 melanoma xenograft model in NOD/SCID mice; format: in vivo, mouse; details: 20 mg/kg i.p.; PLX4032 every day, DET and DETD-35 every two days
Experimental: (§4) A375 and A375-R melanoma cells (3×10^6) were injected subcutaneously to the flanks of the six weeks old NOD/SCID mice. One week after the inoculation, the mice were randomized into treated groups (n=8 per group) and the treatments were started. Body weight and tumor volume of the mice were recorded every three days using formula a×b^2×0.5, where a and b represented the larger and smaller tumor diameters.
We used A375 human melanoma xenograft model to evaluate the in vivo bioefficacy of DET. DETD-35, PLX4032 and compound drug combination. […] For single compound or drug treatment group, PLX4032 was administered i.p. every day and DET and DETD-35 were administered i.p. every two days. For combination treatment, PLX4032 was administered every two days while DET and DETD-35 were administered every four days. […] Compound-drug combinational treatments were carried out with alternative administration of DET (20 mg/kg) or DETD-35 (20 mg/kg) and PLX4032 (20 mg/kg) by which DET or DETD-35 and PLX4032 treatment frequency were only half of the single compound or drug administration alone.

[6] = tested on: MDA-MB-231 cells; assay: Combination with gluthathione biosynthesis blockers (BSO, sulfasalazine), MTT; details: for cell viability after pretreatment with BSO or sulfasalazine: 30 h pretreatment, then DET 12 μM or DETD-35 3 μM for 24 h; for combination effect with BSO: BSO at 0.5 μM, 3 μM, and above; for combination effect with sulfasalazine: sulfasalazine at 25 μM, 62 μM, and above
Experimental: Briefly, cells (5×10^3 cells/well) were seeded in 96-well plates and treated with BSO at concentrations 100 μM, 45 μM, 18 μM, 7.2 μM, 2.8 μM, 1.15 μM, 461 nM, 184 nM, 74 nM and 29 nM, and sulfasalazine at concentrations 62.75 μM, 25.10 μM, 10 μM, 4 μM, 1.6 μM, 642 nM, 257 nM, 102 nM, 41 nM and 16.4 nM for 30 h, and then 12 μM DET or 3 μM DETD-35 were added in the cultural medium to treat the cells for another 24 h. Cell proliferation was measured by MIT assay.

[7] = tested on: HTB-68 (NRAS mutation); assay: MTT cell viability assay, HTB-68 melanoma; format: cell-based, human; details: 24 h
Outline: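 Cells seeded at 2×10^3 to 1×10^4 cells/well overnight, then exposed to compounds for 24 h to 72 h. Growth measured by MTT colorimetric assay; viability expressed as OD570 treated/OD570 vehicle (0.5% DMSO) ×100.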

[8] = tested on: MDA-MB-231 (ER−, PR−, Her2−) human breast cancer cells; assay: MTT cell viability assay, MDA-MB-231 cells; format: cell-based; details: for IC50: Homo sapiens
Outline: as §3

[9] = tested on: MCF-7 (ER+, Her2−) human breast cancer cells; assay: MTT cell viability assay, MCF-7 cells; format: cell-based
Outline: as §3

[10] = tested on: DMBA/TPA-induced skin papillomas accelerated by PLX4032; details: DMBA/TPA + PLX4032 20 mg/kg, with DET or DETD-35 10 mg/kg i.p. twice per week
Experimental: Dorsal skin of six weeks old female FVB/N mice were shaved and treated with topical application of DMBA (25 μg in 100 μL acetone). One week after DMBA treatment, the same skin area were treated topically twice weekly with 12-O-tetradecanoylphorbol-13-acetate (TPA) (4 μg in 100 μL acetone). The area was regularly shaved and tumor formation was assessed twice weekly, and tumors were defined as raised lesions of a minimum diameter of 1 mm.

[11] = tested on: KATO III stomach cancer cell line; assay: MTT cell viability assay, KATO III; format: cell-based; details: Homo sapiens, 24 h
Experimental: as §1, §2

[12] = tested on: A375-R PLX4032-resistant melanoma tumor; assay: A375-R melanoma xenograft model in NOD/SCID mice; format: in vivo, mouse; details: 20 mg/kg i.p. alone
Experimental: as §4
To study whether or not DETD-35 could overcome acquired resistance to BRAF inhibitor, we generated A375 cell line resistant to PLX4032 (designated A375-R) as described above. We then conducted A375-R orthotopic xenograft study.

[13] = tested on: LPS-induced nitric oxide (NO) production in RAW 264.7 cells; assay: Nitric oxide production in LPS-stimulated macrophages (Griess); format: cell-based, mouse; details: for IC50: Mus musculus, LPS-stimulated RAW264.7, nitrite 24 h after LPS
Outline: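 RAW 264.7 macrophages (2×10^5 cells/well) were pretreated with compound for 1 h and then stimulated with 100 ng/μL LPS for 24 h. NO was measured as nitrite in the medium by the Griess reaction. Viability was checked in parallel by MTT.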

[14] = Homo sapiens, A-375, 24 h, 24 h, read-out: IC50 on cell viability, A375 (BRAF mutation)
[15] = 24 h, read-out: IC50 on cell viability, TS/A (ER+, Her2−)
[16] = Table 5, 24 h, read-out: IC50 viability TS/A (mouse) (Breast)
[17] = MDA-MB-231, 24 h, read-out: IC50 on cell viability, MDA-MB-231 (ER−, PR−, Her2−)
[18] = MDA-MB-231, Table 5, 24 h, read-out: IC50 viability MDA-MB-231 (Breast)
[19] = MCF7, 24 h, read-out: IC50 on cell viability, MCF-7 (ER+, Her2−)
[20] = MCF7, Table 5, 24 h, read-out: IC50 viability MCF-7 (Breast)

Structure (SMILES) | IC50 [1] [µM] | IC50 [2, 14] [µM] | IC50 [3] [µM] | IC50 [4, 15] [µM] | IC50 [4, 16] [µM] | reduction of tumor mass vs tumor control [5] [%] | cell viability after pretreatment with BSO or sulfasalazine [6] | combination effect with BSO [6] | combination effect with sulfasalazine [6] | IC50 ([7]; Homo sapiens) [µM] | IC50 [8, 17] [µM] | IC50 [8, 18] [µM] | IC50 [9, 19] [µM] | IC50 [9, 20] [µM] | papillomas size in average [10] [mm^3] | total papillomas number [10] | IC50 [11] [µM] | reduction of tumor mass [12] [%] | IC50 [13] [µM] | also measured
C=C1C(=O)O[C@H]2CC3=C[C@@H](C/C(C)=C/[C@@H](OC(=O)Cc4cccc5ccccc45)[C@H]12)OC3=O [DETD-35] | 0.14 | 2.5 | > 10 | 1.7 | 1.7 | 70.5 | 1% or undetectable | synergistic effects | synergistic effects | 3.9 | 3.5 | 3.5 | 3.2 | 3.9 | 8.9 | 4.8 | 0.65 | 46.9 | 1.5 | IC50 ([2]; 72 h, read-out: IC50 on A375 cells): 0.8 µM; IC50 ([2]; Homo sapiens, A-375, 72 h, 72 h, read-out: IC50 on A375 cells): 0.85 µM; IC50 on cell viability, RAW264.7 (normal macrophage) ([3]; 24 h): no detected toxicity; viability at 3 µM ([6]; Homo sapiens, MDA-MB-231, 24 h, read-out: cell viability, compound alone): ~90%; IC60 on MDA-MB-231 cells ([8]; 24 h): 3.32 µM; fold decrease in IC50 of NO production vs DET [13]: 2 fold
C=C(C)C(=O)O[C@H]1CC2=C[C@@H](C/C(C)=C/[C@H]3OC(=O)C(=C)[C@H]13)OC2=O [DET, deoxyelephantopin, reference compound] | 0.28 | ~6 | > 10 | 2.3 | 2.6 | 47.5 | 1% or undetectable | synergistic effects | synergistic effects | > 10 | 14 | 14 | 5 | 5 | 26.3 | 11.7 | 1.47 | 32 | 2.9 | IC50 ([2]; 24 h, read-out: IC50 on cell viability, A375 (BRAF mutation)): 5.9 µM; cell viability, compound alone ([6]; DET 12 μM, DETD-35 3 μM, 24 h): around 70%; IC50 [7]: > 10 µM
